According to patent US10004701B2, “Methods and compositions for treating infection” (UNIVERSITY OF ROCHESTER, priority 2012, dated 2018):
Counter-ions that a name gives are not always drawn. Like-named read-outs stand apart in the source and are kept apart here.

Experiments:
Assay in all cases: AK assay 384-well format, Prestwick library screening
[1] = system: A. baumannii strain 98-37-09; format: cell-based, Acinetobacter baumannii; details: 50 μM final drug concentration; for fold induction at 50 µM: Acinetobacter baumannii, 983709, 3 h
[2] = system: E. cloacae; format: cell-based, Enterobacter cloacae; details: 50 μM final drug concentration; for fold induction at 50 µM: Enterobacter cloacae, 3 h
[3] = system: K. pneumoniae; format: cell-based, Klebsiella pneumoniae; details: 50 μM final drug concentration; for fold induction at 50 µM: Klebsiella pneumoniae, 3 h
[4] = system: E. faecium; format: cell-based, Enterococcus faecium; details: 50 μM final drug concentration; for fold induction at 50 µM: Enterococcus faecium, 3 h
[5] = system: S. aureus strain USA300-0114; format: cell-based, Staphylococcus aureus; details: 50 μM final drug concentration; for fold induction at 50 µM: Staphylococcus aureus, USA300, 3 h
[6] = system: P. aeruginosa; format: cell-based, Pseudomonas aeruginosa; details: 50 μM final drug concentration; for fold induction at 50 µM: Pseudomonas aeruginosa, 3 h
[7] = system: E. coli; format: cell-based, Escherichia coli; details: 50 μM final drug concentration; for fold induction at 50 µM: Escherichia coli, 3 h
[8] = planktonic, […], read-out: AK-based Prestwick Library Screening Results, A. baumannii (fold increase in extracellular AK activity)
[9] = planktonic, […], read-out: AK-based Prestwick Library Screening Results, E. cloacae (fold increase in extracellular AK activity)
[10] = planktonic, […], read-out: AK-based Prestwick Library Screening Results, K. pneumoniae (fold increase in extracellular AK activity)
[11] = planktonic, […], read-out: AK-based Prestwick Library Screening Results, E. faecium (fold increase in extracellular AK activity)
[12] = planktonic, […], read-out: AK-based Prestwick Library Screening Results, S. aureus (fold increase in extracellular AK activity)
[13] = planktonic, […], read-out: AK-based Prestwick Library Screening Results, P. aeruginosa (fold increase in extracellular AK activity)
[14] = planktonic, […], read-out: AK-based Prestwick Library Screening Results, E. coli (fold increase in extracellular AK activity)
[15] = planktonic, cutoff for positive 3-fold increase
[16] = planktonic A. baumannii, positive cutoff 3-fold increase, read-out: AK-based Prestwick library screening result, A. baumannii (fold increase in extracellular AK activity)
[17] = planktonic E. cloacae, positive cutoff 3-fold increase, read-out: AK-based Prestwick library screening result, E. cloacae (fold increase in extracellular AK activity)
[18] = planktonic K. pneumoniae, positive cutoff 3-fold increase, read-out: AK-based Prestwick library screening result, K. pneumoniae (fold increase in extracellular AK activity)
[19] = planktonic E. faecium, positive cutoff 3-fold increase, read-out: AK-based Prestwick library screening result, E. faecium (fold increase in extracellular AK activity)
[20] = planktonic S. aureus, positive cutoff 3-fold increase, read-out: AK-based Prestwick library screening result, S. aureus (fold increase in extracellular AK activity)
[21] = planktonic P. aeruginosa, positive cutoff 3-fold increase, read-out: AK-based Prestwick library screening result, P. aeruginosa (fold increase in extracellular AK activity)
[22] = planktonic E. coli, positive cutoff 3-fold increase, read-out: AK-based Prestwick library screening result, E. coli (fold increase in extracellular AK activity)

Structure (SMILES): COc1c(C)c2c(c(O)c1C/C=C(\C)CCC(=O)O)C(=O)OC2 [Mycophenolic acid]
- fold induction at 50 µM ([1]; planktonic, cutoff for positive 3-fold increase, read-out: AK-based Prestwick Library Screening Results, A. baumannii (fold increase in extracellular AK activity)): 1.2
- fold induction at 50 µM ([2]; planktonic, cutoff for positive 3-fold increase, read-out: AK-based Prestwick Library Screening Results, E. cloacae (fold increase in extracellular AK activity)): 1.3
- fold induction at 50 µM ([3]; planktonic, cutoff for positive 3-fold increase, read-out: AK-based Prestwick Library Screening Results, K. pneumoniae (fold increase in extracellular AK activity)): 1.5
- fold induction at 50 µM ([4]; planktonic, cutoff for positive 3-fold increase, read-out: AK-based Prestwick Library Screening Results, E. faecium (fold increase in extracellular AK activity)): 1.1
- fold induction at 50 µM ([5]; planktonic, cutoff for positive 3-fold increase, read-out: AK-based Prestwick Library Screening Results, S. aureus (fold increase in extracellular AK activity)): 1.1
- fold induction at 50 µM ([6]; planktonic, cutoff for positive 3-fold increase, read-out: AK-based Prestwick Library Screening Results, P. aeruginosa (fold increase in extracellular AK activity)): 1.2
- fold induction at 50 µM ([7]; planktonic, cutoff for positive 3-fold increase, read-out: AK-based Prestwick Library Screening Results, E. coli (fold increase in extracellular AK activity)): 1.2

Structure (SMILES): CCN1C[C@]2(COC)CC[C@H](O)[C@]34C1[C@@](O)([C@@H](OC)[C@H]23)[C@@]1(O)C[C@H](OC)[C@H]2C[C@@H]4[C@@H]1[C@H]2OC [Delsoline]
- fold induction at 50 µM [1, 8]: 0.9
- fold induction at 50 µM [2, 9]: 1.3
- fold induction at 50 µM [3, 10]: 0.7
- fold induction at 50 µM [4, 11]: 0.9
- fold induction at 50 µM [5, 12]: 0.8
- fold induction at 50 µM [6, 13]: 0.8
- fold induction at 50 µM [7, 14]: 0.9

Structure (SMILES): CCN(CC)CCOc1ccc(C(=C(Cl)c2ccccc2)c2ccccc2)cc1.O=C(O)CC(O)(CC(=O)O)C(=O)O [Clomiphene citrate (Z,E)]
- AK-based Prestwick Library Screening Results, A. baumannii (fold increase in extracellular AK activity) [1, 15]: 5.4
- AK-based Prestwick Library Screening Results, E. cloacae (fold increase in extracellular AK activity) [2, 15]: 1.9
- AK-based Prestwick Library Screening Results, K. pneumoniae (fold increase in extracellular AK activity) [3, 15]: 1.6
- AK-based Prestwick Library Screening Results, E. faecium (fold increase in extracellular AK activity) [4, 15]: 4.4
- AK-based Prestwick Library Screening Results, S. aureus (fold increase in extracellular AK activity) [5, 15]: 2.0
- AK-based Prestwick Library Screening Results, P. aeruginosa (fold increase in extracellular AK activity) [6, 15]: 1.4
- AK-based Prestwick Library Screening Results, E. coli (fold increase in extracellular AK activity) [7, 15]: 1.8

Structure (SMILES): COc1cc(NS(=O)(=O)c2ccc(N)cc2)ncn1 [Sulfamonomethoxine]
- fold induction at 50 µM ([1]; planktonic, cutoff for positive-scoring molecules 3-fold increase, read-out: AK-based Prestwick Library Screening Results, A. baumannii (fold increase in extracellular AK activity)): 1.6
- fold induction at 50 µM ([2]; planktonic, cutoff for positive-scoring molecules 3-fold increase, read-out: AK-based Prestwick Library Screening Results, E. cloacae (fold increase in extracellular AK activity)): 1.1
- fold induction at 50 µM ([3]; planktonic, cutoff for positive-scoring molecules 3-fold increase, read-out: AK-based Prestwick Library Screening Results, K. pneumoniae (fold increase in extracellular AK activity)): 0.8
- fold induction at 50 µM ([4]; planktonic, cutoff for positive-scoring molecules 3-fold increase, read-out: AK-based Prestwick Library Screening Results, E. faecium (fold increase in extracellular AK activity)): 0.9
- fold induction at 50 µM ([5]; planktonic, cutoff for positive-scoring molecules 3-fold increase, read-out: AK-based Prestwick Library Screening Results, S. aureus (fold increase in extracellular AK activity)): 0.7
- fold induction at 50 µM ([6]; planktonic, cutoff for positive-scoring molecules 3-fold increase, read-out: AK-based Prestwick Library Screening Results, P. aeruginosa (fold increase in extracellular AK activity)): 1
- fold induction at 50 µM ([7]; planktonic, cutoff for positive-scoring molecules 3-fold increase, read-out: AK-based Prestwick Library Screening Results, E. coli (fold increase in extracellular AK activity)): 0.9

Structure (SMILES): CC(C)NCC(O)COc1cccc2[nH]ccc12 (stereo not shown) [Pindolol]
- fold induction at 50 µM ([1]; 384-well format, cutoff for positive-scoring molecules 3-fold increase, read-out: AK-based Prestwick Library Screening Results, A. baumannii (increase in extracellular AK activity)): 0.5
- fold induction at 50 µM ([2]; 384-well format, cutoff for positive-scoring molecules 3-fold increase, read-out: AK-based Prestwick Library Screening Results, E. cloacae (increase in extracellular AK activity)): 0.4
- fold induction at 50 µM ([3]; 384-well format, cutoff for positive-scoring molecules 3-fold increase, read-out: AK-based Prestwick Library Screening Results, K. pneumoniae (increase in extracellular AK activity)): 0.6
- fold induction at 50 µM ([4]; 384-well format, cutoff for positive-scoring molecules 3-fold increase, read-out: AK-based Prestwick Library Screening Results, E. faecium (increase in extracellular AK activity)): 1
- fold induction at 50 µM ([5]; 384-well format, cutoff for positive-scoring molecules 3-fold increase, read-out: AK-based Prestwick Library Screening Results, S. aureus (increase in extracellular AK activity)): 0.5
- fold induction at 50 µM ([6]; 384-well format, cutoff for positive-scoring molecules 3-fold increase, read-out: AK-based Prestwick Library Screening Results, P. aeruginosa (increase in extracellular AK activity)): 0.4
- fold induction at 50 µM ([7]; 384-well format, cutoff for positive-scoring molecules 3-fold increase, read-out: AK-based Prestwick Library Screening Results, E. coli (increase in extracellular AK activity)): 0.5

Structure (SMILES): CCC(=O)O[C@]1(C(=O)SCF)[C@H](C)C[C@H]2[C@@H]3C[C@H](F)C4=CC(=O)C=C[C@]4(C)[C@@]3(F)[C@@H](O)C[C@@]21C [Fluticasone propionate]
- fold induction at 50 µM [1, 16]: 0.8
- fold induction at 50 µM [2, 17]: 1.5
- fold induction at 50 µM [3, 18]: 0.7
- fold induction at 50 µM [4, 19]: 0.9
- fold induction at 50 µM [5, 20]: 0.7
- fold induction at 50 µM [6, 21]: 0.8
- fold induction at 50 µM [7, 22]: 0.8

Structure (SMILES): CCN(CC)CCOC(=O)C(c1ccccc1)c1ccccc1 [Adiphenine hydrochloride]
- fold induction at 50 µM ([1]; planktonic A. baumannii, 384-well, cutoff for positive-scoring molecules 3-fold increase, read-out: AK-based Prestwick Library Screening Results: A. baumannii (increase in extracellular AK activity)): 1.3
- fold induction at 50 µM ([2]; planktonic E. cloacae, 384-well, cutoff for positive-scoring molecules 3-fold increase, read-out: AK-based Prestwick Library Screening Results: E. cloacae (increase in extracellular AK activity)): 1.5
- fold induction at 50 µM ([3]; planktonic K. pneumoniae, 384-well, cutoff for positive-scoring molecules 3-fold increase, read-out: AK-based Prestwick Library Screening Results: K. pneumoniae (increase in extracellular AK activity)): 1
- fold induction at 50 µM ([4]; planktonic E. faecium, 384-well, cutoff for positive-scoring molecules 3-fold increase, read-out: AK-based Prestwick Library Screening Results: E. faecium (increase in extracellular AK activity)): 1
- fold induction at 50 µM ([5]; planktonic S. aureus, 384-well, cutoff for positive-scoring molecules 3-fold increase, read-out: AK-based Prestwick Library Screening Results: S. aureus (increase in extracellular AK activity)): 1.3
- fold induction at 50 µM ([6]; planktonic P. aeruginosa, 384-well, cutoff for positive-scoring molecules 3-fold increase, read-out: AK-based Prestwick Library Screening Results: P. aeruginosa (increase in extracellular AK activity)): 0.9
- fold induction at 50 µM ([7]; planktonic E. coli, 384-well, cutoff for positive-scoring molecules 3-fold increase, read-out: AK-based Prestwick Library Screening Results: E. coli (increase in extracellular AK activity)): 1.2

Structure (SMILES): C#CCN(C)[C@H](C)Cc1ccccc1 [Selegiline hydrochloride]
- fold induction at 50 µM [1, 8]: 1.1
- fold induction at 50 µM [2, 9]: 1.6
- fold induction at 50 µM [3, 10]: 1.2
- fold induction at 50 µM [4, 11]: 1
- fold induction at 50 µM [5, 12]: 1.1
- fold induction at 50 µM [6, 13]: 1.2
- fold induction at 50 µM [7, 14]: 1.3

Structure (SMILES): CNCCc1ccccn1.CS(=O)(=O)O.CS(=O)(=O)O [Betahistine mesylate]
- AK-based Prestwick Library Screening Results, A. baumannii (fold increase in extracellular AK activity) [1, 15]: 1.2
- AK-based Prestwick Library Screening Results, E. cloacae (fold increase in extracellular AK activity) [2, 15]: 1.3
- AK-based Prestwick Library Screening Results, K. pneumoniae (fold increase in extracellular AK activity) [3, 15]: 1.1
- AK-based Prestwick Library Screening Results, E. faecium (fold increase in extracellular AK activity) [4, 15]: 0.9
- AK-based Prestwick Library Screening Results, S. aureus (fold increase in extracellular AK activity) [5, 15]: 0.9
- AK-based Prestwick Library Screening Results, P. aeruginosa (fold increase in extracellular AK activity) [6, 15]: 1.1
- AK-based Prestwick Library Screening Results, E. coli (fold increase in extracellular AK activity) [7, 15]: 1.4

Structure (SMILES): COc1ncnc(NS(=O)(=O)c2ccc(N)cc2)c1OC [Sulfadoxine]
- fold induction at 50 µM [1, 16]: 2.9
- fold induction at 50 µM [2, 17]: 1.3
- fold induction at 50 µM [3, 18]: 1
- fold induction at 50 µM [4, 19]: 1
- fold induction at 50 µM [5, 20]: 0.9
- fold induction at 50 µM [6, 21]: 1
- fold induction at 50 µM [7, 22]: 1
